Measured values from article PMC8401035, “Synthesis and In Vitro Characterization of Glycopeptide Drug Candidates Related to PACAP1–23” (Molecules, 2021).
Read-outs that look alike come from different tables or passages of the source. Non-standard residues stand in square brackets, D forms with d. Residues, ends and D or L forms follow the SMILES beside them. *: point of attachment. X1 = OC[C@H]1O[C@@H](O[C@H]2[C@H](O)[C@@H](O)[C@H](*)O[C@@H]2CO)[C@H](O)[C@@H](O)[C@H]1O; Nva = CCC[C@H](N)C(=O)O; Sar = CNCC(=O)O

How the values were obtained:
human PAC1 = molecular target: T1, human PAC1 (Homo sapiens, UniProt P41586); assay: cAMP accumulation assay in PAC1-CHO cells; format: cell-based; details: for EC50: cAMP stimulation, CHO cells stably expressing human PAC1, 500 μM IBMX, 10 min agonist at 37 °C, 3H-cAMP/PKA competition read-out, Table 3, control has two values (two experiments)
T1 construct: 3xHA (N)
T1 sequence (P41586 21-468): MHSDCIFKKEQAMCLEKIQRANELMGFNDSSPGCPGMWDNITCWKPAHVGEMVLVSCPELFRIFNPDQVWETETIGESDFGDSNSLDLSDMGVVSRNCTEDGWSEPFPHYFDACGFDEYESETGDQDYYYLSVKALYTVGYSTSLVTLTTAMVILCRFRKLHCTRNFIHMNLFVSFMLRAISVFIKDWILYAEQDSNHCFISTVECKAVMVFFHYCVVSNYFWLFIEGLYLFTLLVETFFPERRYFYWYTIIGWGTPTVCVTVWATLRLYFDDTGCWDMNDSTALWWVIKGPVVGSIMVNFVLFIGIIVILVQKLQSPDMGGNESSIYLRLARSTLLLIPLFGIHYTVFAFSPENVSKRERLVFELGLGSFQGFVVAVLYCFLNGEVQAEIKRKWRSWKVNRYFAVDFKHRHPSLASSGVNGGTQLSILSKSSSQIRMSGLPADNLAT
Method: In Vitro cAMP Accumulation
(§1) DMEM:F12 (1:1)medium, incubated
(§2) Serial dilutions of different

human VPAC2 = molecular target: T2, human VPAC2 (Homo sapiens, UniProt P41587); assay: cAMP accumulation assay in VPAC2-CHO cells; format: cell-based
T2 construct: 3xHA (N)
T2 sequence (P41587 24-438): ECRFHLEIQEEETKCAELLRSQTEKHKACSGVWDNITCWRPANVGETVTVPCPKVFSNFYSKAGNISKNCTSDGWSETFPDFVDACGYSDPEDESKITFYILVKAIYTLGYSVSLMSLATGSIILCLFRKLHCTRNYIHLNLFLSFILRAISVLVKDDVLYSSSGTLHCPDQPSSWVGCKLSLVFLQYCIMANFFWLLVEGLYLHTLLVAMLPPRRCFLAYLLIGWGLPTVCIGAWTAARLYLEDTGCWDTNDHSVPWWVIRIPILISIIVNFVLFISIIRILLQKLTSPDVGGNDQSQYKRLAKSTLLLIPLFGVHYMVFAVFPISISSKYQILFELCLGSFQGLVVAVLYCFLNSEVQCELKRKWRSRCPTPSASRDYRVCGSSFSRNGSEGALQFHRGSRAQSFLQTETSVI
Method: as §1, §2

human VPAC1 = molecular target: T3, human VPAC1 (Homo sapiens, UniProt P32241); assay: cAMP accumulation assay in VPAC1-CHO cells; details: for Emax: read-out: VPAC1 EMAX
T3 sequence (P32241 31-457): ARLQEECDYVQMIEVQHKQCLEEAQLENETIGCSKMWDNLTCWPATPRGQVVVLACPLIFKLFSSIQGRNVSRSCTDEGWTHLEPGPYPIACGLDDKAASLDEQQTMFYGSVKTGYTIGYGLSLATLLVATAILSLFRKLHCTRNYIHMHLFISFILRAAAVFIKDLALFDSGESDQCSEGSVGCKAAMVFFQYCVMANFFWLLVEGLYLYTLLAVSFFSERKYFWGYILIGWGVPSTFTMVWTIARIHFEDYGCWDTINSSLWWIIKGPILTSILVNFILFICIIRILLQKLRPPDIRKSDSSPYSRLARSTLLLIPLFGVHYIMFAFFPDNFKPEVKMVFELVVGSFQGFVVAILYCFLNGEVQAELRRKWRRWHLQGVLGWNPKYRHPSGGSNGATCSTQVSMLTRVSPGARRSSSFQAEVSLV

[1] = HA-VPAC2-CHO passage #28, 20,000 cells/well, dilutions from 10 uM, single experiment in duplicate, supplement page S13, read-out: VPAC2-CHO EC50(nM), supplement curve fit
[2] = cAMP stimulation, CHO cells stably expressing human VPAC2, 500 μM IBMX, 10 min agonist at 37 °C, Table 3, NC = No convergence, read-out: VPAC2 EC50

Emax (human PAC1)	EC50 (human PAC1)	Emax (human VPAC2)	EC50 (human VPAC2; [1])	EC50 (human VPAC1)	Emax (human VPAC1)	selectivity for PAC1 over VPAC1 (human PAC1; ratio of cAMP EC50 values (VPAC1/PAC1))	selectivity for PAC1 over VPAC2 (human PAC1; ratio of cAMP EC50 values (VPAC2/PAC1))	EC50 (human VPAC2; [2])	SMILES
198%	2.2 nM	111%	576 nM	5.2 nM	42%	–	–	–	CCC[C@H](NC(=O)[C@H](CCC(N)=O)NC(=O)[C@H](CCCCN)NC(=O)[C@H](CCCNC(=N)N)NC(=O)[C@H](Cc1ccc(O)cc1)NC(=O)[C@H](CCCNC(=N)N)NC(=O)[C@H](CO)NC(=O)[C@H](Cc1ccc(O)cc1)NC(=O)[C@H](CO)NC(=O)[C@H](CC(=O)O)NC(=O)[C@@H](NC(=O)[C@H](Cc1ccccc1)NC(=O)[C@@H](NC(=O)CNC(=O)[C@H](CC(=O)O)NC(=O)[C@H](CO)NC(=O)[C@@H](N)Cc1c[nH]cn1)[C@@H](C)CC)[C@@H](C)O)C(=O)N[C@@H](C)C(=O)N[C@H](C(=O)N[C@@H](CCCCN)C(=O)N[C@@H](CCCCN)C(=O)N[C@@H](Cc1ccc(O)cc1)C(=O)N[C@@H](CC(C)C)C(=O)N[C@@H](CO)C(N)=O)C(C)C [Compound 1]
181%	0.64 nM	110%	577 nM	37 nM	104%	~ 58 fold	~ 886 fold	–	CCC[C@H](NC(=O)[C@H](CCC(N)=O)NC(=O)[C@H](CCCCN)NC(=O)[C@H](CCCNC(=N)N)NC(=O)[C@H](Cc1ccc(O)cc1)NC(=O)[C@H](CCCNC(=N)N)NC(=O)[C@H](CO)NC(=O)[C@H](Cc1ccc(O)cc1)NC(=O)[C@H](CO)NC(=O)[C@H](CC(=O)O)NC(=O)[C@@H](NC(=O)[C@H](Cc1ccccc1)NC(=O)[C@@H](NC(=O)CNC(=O)[C@H](CC(=O)O)NC(=O)[C@H](CO)NC(=O)[C@@H](N)Cc1c[nH]cn1)[C@@H](C)CC)[C@@H](C)O)C(=O)N[C@@H](C)C(=O)N[C@H](C(=O)N[C@@H](CCCCN)C(=O)N[C@@H](CCCCN)C(=O)N[C@@H](Cc1ccc(O)cc1)C(=O)N[C@@H](CC(C)C)C(=O)N[C@@H](CO[C@@H]1O[C@H](CO)[C@@H](O)[C@H](O)[C@H]1O)C(N)=O)C(C)C [Compound 2]
152%	1.9 nM	128%	–	26 nM	147%	–	–	7370 nM	CCC[C@H](NC(=O)[C@H](CCC(N)=O)NC(=O)[C@H](CCCCN)NC(=O)[C@H](CCCNC(=N)N)NC(=O)[C@H](Cc1ccc(O)cc1)NC(=O)[C@H](CCCNC(=N)N)NC(=O)[C@H](CO)NC(=O)[C@H](Cc1ccc(O)cc1)NC(=O)[C@H](CO)NC(=O)[C@H](CC(=O)O)NC(=O)[C@@H](NC(=O)[C@H](Cc1ccccc1)NC(=O)[C@@H](NC(=O)CNC(=O)[C@H](CC(=O)O)NC(=O)[C@H](CO)NC(=O)[C@@H](N)Cc1c[nH]cn1)[C@@H](C)CC)[C@@H](C)O)C(=O)N[C@@H](C)C(=O)N[C@H](C(=O)N[C@@H](CCCCN)C(=O)N[C@@H](CCCCN)C(=O)N[C@@H](Cc1ccc(O)cc1)C(=O)N[C@@H](CC(C)C)C(=O)N[C@@H](CO[C@@H]1O[C@H](CO)[C@@H](O)[C@H](O)[C@H]1O)C(=O)N[C@@H](CO[C@@H]1O[C@H](CO)[C@@H](O)[C@H](O)[C@H]1O)C(N)=O)C(C)C [Compound 3]
174%	1.8 nM	169%	–	21 nM	118%	–	–	1940 nM	CCC[C@H](NC(=O)[C@H](CCC(N)=O)NC(=O)[C@H](CCCCN)NC(=O)[C@H](CCCNC(=N)N)NC(=O)[C@H](Cc1ccc(O)cc1)NC(=O)[C@H](CCCNC(=N)N)NC(=O)[C@H](CO)NC(=O)[C@H](Cc1ccc(O)cc1)NC(=O)[C@H](CO)NC(=O)[C@H](CC(=O)O)NC(=O)[C@@H](NC(=O)[C@H](Cc1ccccc1)NC(=O)[C@@H](NC(=O)CNC(=O)[C@H](CC(=O)O)NC(=O)[C@H](CO)NC(=O)[C@@H](N)Cc1c[nH]cn1)[C@@H](C)CC)[C@@H](C)O)C(=O)N[C@@H](C)C(=O)N[C@H](C(=O)N[C@@H](CCCCN)C(=O)N[C@@H](CCCCN)C(=O)N[C@@H](Cc1ccc(O)cc1)C(=O)N[C@@H](CC(C)C)C(=O)N[C@@H](CO[C@@H]1O[C@H](CO)[C@@H](O[C@@H]2O[C@H](CO)[C@H](O)[C@H](O)[C@H]2O)[C@H](O)[C@H]1O)C(N)=O)C(C)C [Compound 4]
181%	7 nM	139%	–	38 nM	124%	–	–	321 nM	CCC[C@H](NC(=O)[C@H](CCC(N)=O)NC(=O)[C@H](CCCCN)NC(=O)[C@H](CCCNC(=N)N)NC(=O)[C@H](Cc1ccc(O)cc1)NC(=O)[C@H](CCCNC(=N)N)NC(=O)[C@H](CO)NC(=O)[C@H](Cc1ccc(O)cc1)NC(=O)[C@H](CO)NC(=O)[C@H](CC(=O)O)NC(=O)[C@@H](NC(=O)[C@H](Cc1ccccc1)NC(=O)[C@@H](NC(=O)[C@H](C)NC(=O)[C@H](CC(=O)O)NC(=O)[C@H](CO)NC(=O)[C@@H](N)Cc1c[nH]cn1)[C@@H](C)CC)[C@@H](C)O)C(=O)N[C@@H](C)C(=O)N[C@H](C(=O)N[C@@H](CCCCN)C(=O)N[C@@H](CCCCN)C(=O)N[C@@H](Cc1ccc(O)cc1)C(=O)N[C@@H](CC(C)C)C(=O)N[C@@H](CO[C@@H]1O[C@H](CO)[C@@H](O[C@@H]2O[C@H](CO)[C@H](O)[C@H](O)[C@H]2O)[C@H](O)[C@H]1O)C(N)=O)C(C)C [Compound 5]
134%	67 nM	–	–	195 nM	107%	–	–	–	CCC[C@H](NC(=O)[C@H](CCC(N)=O)NC(=O)[C@H](CCCCN)NC(=O)[C@H](CCCNC(=N)N)NC(=O)[C@H](Cc1ccc(O)cc1)NC(=O)[C@H](CCCNC(=N)N)NC(=O)[C@H](CO)NC(=O)[C@H](Cc1ccc(O)cc1)NC(=O)[C@H](CO)NC(=O)[C@H](CC(=O)O)NC(=O)[C@@H](NC(=O)[C@H](Cc1ccccc1)NC(=O)[C@@H](NC(=O)CN(C)C(=O)[C@H](CC(=O)O)NC(=O)[C@H](CO)NC(=O)[C@@H](N)Cc1c[nH]cn1)[C@@H](C)CC)[C@@H](C)O)C(=O)N[C@@H](C)C(=O)N[C@H](C(=O)N[C@@H](CCCCN)C(=O)N[C@@H](CCCCN)C(=O)N[C@@H](Cc1ccc(O)cc1)C(=O)N[C@@H](CC(C)C)C(=O)N[C@@H](CO[C@@H]1O[C@H](CO)[C@@H](O[C@@H]2O[C@H](CO)[C@H](O)[C@H](O)[C@H]2O)[C@H](O)[C@H]1O)C(N)=O)C(C)C [Compound 6] (H-HSD[Sar]IFTDSYSRYRKQ[Nva]AVKKYLS(X1)-NH2)
